Source: article PMC12257413, “Discovery of a Novel sp^3‑Rich M1 Positive Allosteric Modulators (PAMs) Chemotype via Scaffold Hopping” (ACS Medicinal Chemistry Letters, 2025)

Experiments:
[1] = Brain to plasma ratio (PK/PBL cassette); type: in vivo; conditions: rat
Method: In vivo DMPK experimental:
Determination of brain to plasma ratio:
Sample Analysis: Concentrations in plasma and brain homogenates were quantified by liquid chromatography tandem mass spectrometry (LC-MS/MS). Whole brains were homogenized in 3 mL of 70:30 IPA:water in a mini bead beater for 3 min, and centrifuged at 3,500 g for 5 min. 5 uL of the supernatant was diluted in 15 uL of blank plasma for quantification of the analytes. Plasma samples were centrifuged at 3,500 g for 5 min. A standard curve was generated by diluting the analytes DMSO stocks with blank plasma to obtain a final concentration of 10,000 ng/ml followed by a serial dilution down to 0.5 ng/ml. […]
Plasma and brain tissue samples originating from in vivo studies were analyzed by electrospray ionization using an AB Sciex Q-TRAP 5500 (Foster City, CA) that was coupled to a Shimadzu LC-20AD pump (Columbia, MD) and a Leap Technologies CTC PAL auto-sampler (Carrboro, NC). […]
transitioning to 10% B over 0.05 min. […] All data were analyzed using AB Sciex Analyst 1.5.1 software.
Brain plasma concentration ratio (Kp) was calculated by dividing brain concentration by plasma concentration for each animal. Unbound brain to unbound plasma concentration ratio (Kp,uu) is calculated using the following formula: Kp,uu = (Brain ng/g x brain fu)/(plasma ng/ml x plasma fu).

[2] = Intrinsic clearance in human hepatic microsomes, predicted hepatic clearance; type: in vitro ADME; conditions: predicted hepatic clearance from human hepatic microsomes
Method: A similar approach was used to determine the degree of brain homogenate binding, which employed the same methodology and procedure with the following modifications: 1) a final compound concentration of 1 μM was used, 2) naïve rat brains were homogenized in DPBS (1:3 composition of brain: DPBS, w/w) using a Mini-Bead Beater™ machine in order to obtain brain homogenate, which was then treated in the same manner as the plasma samples in the previously described plasma protein binding assay. […]
same manner as the plasma samples in the previously described plasma protein binding assay. Fraction unbound for both plasma and brain samples was determined using Equation 4.
Equation 4 Determination of fraction unbound in plasma.
The diluted fraction unbound (fu2) in brain was calculated in the same manner by using brain homogenate rather than plasma. Undiluted fraction unbound for the brain was calculated using Equation 5 […]
Equation 5 Determination of fraction unbound in brain. […]
Human or rat hepatic microsomes (0.5 mg/mL) and 1 µM test compound were incubated in 100 mM potassium phosphate pH 7.4 buffer with 3 mM MgCl 2 at 37 °C with constant shaking. […] The in vitro half-life (1/2, min, Eq. 1), intrinsic clearance (CL int, mL/min/kg, Eq. 2), and subsequent predicted hepatic clearance (CLhep, mL/min/kg, Eq. 3) was determined employing the following equations: […]

| Kp [1] | Human CLHEP [2] [mL/min/kg] | Compound |
| --- | --- | --- |
| 0.12 | 6.7 | Cn1cc(-c2ccc(Cc3cc(C(=O)N[C@H]4CCOC[C@@H]4O)nn3C3CCCC3)cc2)cn1 [17g] |
| 0.63 | 14.3 | Cn1cc(-c2ccc(Cc3cc(C(=O)N[C@H]4CCCC[C@@H]4O)nn3C3CCCC3)cc2)cn1 [17k] |
